Data: patent US20120195978A1, “CAPCNA PEPTIDE THERAPEUTICS FOR CANCER” (Indiana University Research and Technology Corpora, priority 2009, published 2012)
No end group written: not given here.

Columns and labels:
U937 cells = assay: Cytotoxic effects of R9-linked caPCNA peptides, % cell death by flow cytometry; format: cell-based; conditions: for Effect of alanine substitution on cytotoxic action of the peptide (in words): compared with unsubstituted R9-caPCNA peptide
Procedure: R9 refers to a cell penetrating peptide that includes a polyarginine sequence e.g., nine contiguous arginine residues. Alanine substitutions in the caPCNA peptide affect its cytotoxic action. U937 cells were treated with each alanine substituted peptide and the scrambled peptide and % cell death evaluated by flow cytometry.

MCF 7 (breast cancer) = assay: Preferential killing of cancer cells by R9-caPeptide; format: cell-based
MCF 10A (non-malignant) = assay: as above; format: cell-based
[1] = test system: HCC1937 cells lacking BRCA1; assay: MTT assay, caPCNA peptides alone and in combination with cisplatin; format: cell-based, human
Procedure: Breast cancer cells were obtained from a patient harboring a hereditary mutation in BRCA1, a major component of DNA double strand break repair (HCC1937 cells). HCC1937 is a near-tetraploid cell line from mammary gland whose cells are homozygous for a frameshift mutation in BRCA1. The cell line is available at ATCC.
MTT [3-(4,5-dimethylthiazol-2-yl)-2,5-diphenyltetrazolium bromide] assays were conducted with caPCNA peptides at a variety of time points both alone and in combination with a DNA damaging agent e.g., cisplatin in HCC1937 and HCC1937+wild-type BRCA1 cells. The MTT assay is based on the ability of a mitochondrial dehydrogenase enzyme from viable cells to cleave the tetrazolium rings of the pale yellow MTT dye and form dark blue formazan crystals. These formazan crystals are largely impermeable to cell membranes and thus accumulate within healthy cells. Solubilization of the cells by the addition of a detergent results in the liberation and solubilization of the crystals. The number of proliferating cells is directly proportional to the level of formazan product created. The color can then be quantified using a simple colorimetric assay. The results are read on a multiwall scanning spectrophotometer (ELISA reader). The peptides used in these experiments including caPCNA peptide, Q131A ([…] (SEQ ID NO: 5)), and P129A ([…] (SEQ ID NO: 3)) were ordered and obtained from Anaspec (Fremont, Calif.). ca PCNA peptide was dissolved in sterile 1×PBS solution to create a 1.5 mM stock concentration. caPCNA peptides with alanine substitutions (e.g., P129A (SEQ ID NO: 3) and Q131A (SEQ ID NO: 5)) were dissolved in sterile 1×PBS solution to create 1.0 mM stock solutions.
MTT assays: The efficacy of caPCNA peptides (caPeptides) were tested using the MTT assays: HCC1937 and HCC137+wildtype BRCA1 cells were grown in DMEM 1× (supplemented with 10% fetal bovine serum and 5% penicillin/streptomycin) and were plated at a densities of 5.5×10^3 or 7×10^3, respectively, in 96 well plates (100 μL total volume per well) and allowed to attach overnight in a 37° C. incubator (5% CO2). Then, caPCNA peptide stock solution was diluted to final working concentrations in DMEM 1× (10% fetal bovine serum and 5% penicillin/streptomycin) of 150 μM, 100 μM, 75 μM, 50 and 25 μM. Media was removed from cells and replaced with media containing caPCNA peptide at various concentrations (200 μL total volume per well). Cells were cultured with caPCNA peptide-containing media for 24, 48 or 72 hours. At the appropriate treatment timepoint, 20 μL MTT (5 mg/mL in PBS) reagent was added to each well and plates were incubated for an additional 4 hours. Media/dye solution was then aspirated and 200 μL DMSO was added to each well. Plates were rocked at room temperature for five minutes to dissolve crystals and transferred to an ELISA plate reader. Absorbance was measured at 550 nm. The extent to which caPeptides inhibited cell proliferation was calculated as a percentage of the absorbance in each well containing caPCNA peptide relative to wells containing no caPCNA peptide (negative control) for both HCC1937 and HCC1937+wild-type BRCA1 cells.
Efficacy of P129A (SEQ ID NO: 3) and Q131A (SEQ ID NO: 5) caPCNA peptides: Cells were cultured and plated in 96 well plates as described herein. P129A (SEQ ID NO: 3) or Q131A (SEQ ID NO: 5) stock solution was diluted to final working concentrations in DMEM 1× (10% fetal bovine serum and 5% penicillin/streptomycin) of 100 μM, 75 μM, 50 μM, 25 μM, and 12.5 μM. Media was removed from cells and replaced with media containing P129A (SEQ ID NO: 3) or Q131A (SEQ ID NO: 5) caPCNA peptides at various concentrations (200 μL total volume per well) and cells were cultured with peptide-containing media for 24 hours. After 24 hours, the MTT assay was completed and data analysis was performed as described herein. […]

[2] = test system: HCC1937+wild-type BRCA1 cells; assay: as above; format: cell-based, human
Procedure: As a genetically matched control, wild-type BRCA1 has been transduced into HCC1937 cells (referred to as HCC1937+wild-type BRCA1). HCC1937+wild-type BRCA1 cells were selected for maintenance of the vector using 1 μg/mL puromycin. All cells in these assays were used at passage numbers <25.
MTT [3-(4,5-dimethylthiazol-2-yl)-2,5-diphenyltetrazolium bromide] assays were conducted with caPCNA peptides at a variety of time points both alone and in combination with a DNA damaging agent e.g., cisplatin in HCC1937 and HCC1937+wild-type BRCA1 cells. […] The color can then be quantified using a simple colorimetric assay. The results are read on a multiwall scanning spectrophotometer (ELISA reader). […]
MTT assays: The efficacy of caPCNA peptides (caPeptides) were tested using the MTT assays: HCC1937 and HCC137+wildtype BRCA1 cells were grown in DMEM 1× (supplemented with 10% fetal bovine serum and 5% penicillin/streptomycin) and were plated at a densities of 5.5×10^3 or 7×10^3, respectively, in 96 well plates (100 μL total volume per well) and allowed to attach overnight in a 37° C. incubator (5% CO2). […] Plates were rocked at room temperature for five minutes to dissolve crystals and transferred to an ELISA plate reader. Absorbance was measured at 550 nm. […]

HCC1937 cells = assay: Clonogenic survival assay after caPCNA peptide treatment; format: cell-based, human; conditions: 100 μM peptide for 48 hours, 13 days growth; effect more pronounced than in cells with wild-type BRCA1
Procedure: (§1) Clonogeizic survival assay: Clonogenic survival after caPCNA peptide treatment: The purpose of this experiment was to determine the effects of high caPCNA peptide treatment (100 μM caPCNA peptide for 48 hours) on ability of cells plated at low density to proliferate and form colonies. HCC1937 and HCC1937+wild-type BRCA1 cells were plated in 6-well plates and allowed to attach overnight at 37° C.
(§2) Then, media was removed and replaced with 100 μM caPCNA peptide in DMEM 1× (10% fetal bovine serum and 5% penicillin/streptomycin). Untreated cells were used as a negative control. Plates were incubated with media containing peptide for 48 hours. Live cells were then collected, counted, plated at low density ([…] cells in 10 cm2 dishes) and allowed to grow in DMEM 1× (20% fetal bovine serum, 5% penicillin/streptomycin) for 13 days. After 13-day incubation, media was removed and plates were washed twice with 1×PBS. Cells were fixed with 70% EtOH for 10 minutes, dried, and stained for 1 hour with 20% Giemsa diluted in MilliQ water. Dye was removed; plates were rinsed, dried overnight and photographed. Images shown are representative of results obtained for treated and untreated HCC1937 and HCC1937+wild-type BRCA1 cells.

[3] = test system: HCC1937+wild-type BRCA1 cells; assay: as above; format: cell-based, human; conditions: 100 μM peptide for 48 hours, 13 days growth
Procedure: as §1, §2

[4] = HCC1937 and HCC1937+wild-type BRCA1 cells, 24 hours

Compound: A6-sub. Peptide: R9-linked caPCNA 126-133 peptide with alanine at position 6, Q131 (SEQ ID NO: 64) (RRRRRRRRRLGIPEAEY; R9 linked)
- Effect of alanine substitution on cytotoxic action of the peptide (in words) (U937 cells): increase in cytotoxicity

Compound: Unsub. Peptide: R9-linked caPCNA 126-133 peptide LGIPEQEY, unsubstituted (SEQ ID NO: 58) (RRRRRRRRRLGIPEQEY; R9 linked)
- % cancer cell death (U937 cells; flow cytometry): 43 ± 10%

Compound: R9-caPeptide: R9 (nonaarginine)-linked caPCNA peptide of Table 6; exact sequence not printed there (LGIPEQEY; also: linked to nonaarginine (R9), site not given here; UniProt P12004 126-133, looked up, fragment) [Peptide R9-caPeptide]
- % Dead Cells (MCF 7 (breast cancer)): 91.5%
- % Dead Cells (MCF 10A (non-malignant)): 18.2%

Compound: A2-sub. Peptide: R9-linked caPCNA 126-133 peptide with alanine at position 2, G127 (SEQ ID NO: 60) (RRRRRRRRRLAIPEQEY; R9 linked)
- Effect of alanine substitution on cytotoxic action of the peptide (in words) (U937 cells): neutral change

Compound: LGIPEAEY [Peptide Q131A]
- Efficacy in comparison to wild-type peptides (MTT) [1, 4]: enhanced efficacy
- Rank of efficacy among the peptides tested (MTT) [1, 4]: appears to be more effective of these peptides tested

Compound: LGIAEQEY [Peptide P129A]
- Efficacy in comparison to wild-type peptides (MTT) [1, 4]: enhanced efficacy

Compound: N.N.[Cl][Pt][Cl] [cisplatin, reference compound]
- Sensitivity of cells to cisplatin (MTT) ([2]; HCC1937+wild-type BRCA1 cells, FIG. 3B): relatively resistant
- IC50 ([2]; HCC1937 cells with BRCA1, cisplatin alone, FIG. 4B, read-out: IC50 value for cisplatin alone (growth inhibition)): > 200 µM
- IC50 ([1]; HCC1937 cells lacking BRCA1, cisplatin alone, FIG. 4A, read-out: IC50 value for cisplatin alone (growth inhibition)): ~155 µM
- Sensitivity of cells to cisplatin (MTT) ([1]; HCC1937 cells, FIG. 3A): relatively resistant

Compound: A5-sub. Peptide: R9-linked caPCNA 126-133 peptide with alanine at position 5, E130 (SEQ ID NO: 63) (RRRRRRRRRLGIPAQEY; R9 linked)
- Effect of alanine substitution on cytotoxic action of the peptide (in words) (U937 cells): neutral change

Compound: A1-sub. Peptide: R9-linked caPCNA 126-133 peptide with alanine at position 1, L126 (SEQ ID NO: 59) (RRRRRRRRRAGIPEQEY; R9 linked)
- Effect of alanine substitution on cytotoxic action of the peptide (in words) (U937 cells): reduced cytotoxic activity

Compound: A4-sub. Peptide: R9-linked caPCNA 126-133 peptide with alanine at position 4, P129 (SEQ ID NO: 62) (RRRRRRRRRLGIAEQEY; R9 linked)
- Effect of alanine substitution on cytotoxic action of the peptide (in words) (U937 cells): increase in cytotoxicity

Compound: caPCNA peptide: caPCNA-derived peptide (aa 126-133) obtained from Anaspec; the figure legends call it R9-caPCNA / R9-PCNA peptide (LGIPEQEY; also: R9 (nonaarginine) linked, site not given here; UniProt P12004 126-133, looked up, fragment)
- Sensitivity of cells to caPCNA peptides (MTT) ([1]; HCC1937 in comparison to HCC1937+wild-type BRCA1 cells, 24, 48 and 72 hour treatment): trend of increased sensitivity
- Colony formation (HCC1937 cells): inhibits colony formation
- Colony formation [3]: inhibits colony formation

Compound: A7-sub. Peptide: R9-linked caPCNA 126-133 peptide with alanine at position 7, E132 (SEQ ID NO: 65) (RRRRRRRRRLGIPEQAY; R9 linked)
- Effect of alanine substitution on cytotoxic action of the peptide (in words) (U937 cells): increase in cytotoxicity

Compound: A8-sub. Peptide: R9-linked caPCNA 126-133 peptide with alanine at position 8, Y133 (SEQ ID NO: 66) (RRRRRRRRRLGIPEQEA; R9 linked)
- Effect of alanine substitution on cytotoxic action of the peptide (in words) (U937 cells): reduced cytotoxic activity

Compound: A3-sub. Peptide: R9-linked caPCNA 126-133 peptide with alanine at position 3, I128 (SEQ ID NO: 61) (RRRRRRRRRLGAPEQEY; R9 linked)
- Effect of alanine substitution on cytotoxic action of the peptide (in words) (U937 cells): decrease in cytotoxic action but not to the levels of aa126 or aa133
